Consider 4 molecules from patent US20070232563A1, “Method for Enhancing Biological Activity and/or Expanding Suitable Region for Biological Activity of Living Body Contacting with Aqueous Environment” (Kabushiki Kaisha Hayashibara Seibutsu Kagaku Kenky, priority 2004, published 2007).

Test [1] relates to short-necked clam (Ruditapes philippinarum). Nature of the test: Biological activity of short-necked clam (aqueduct extension score) in aqueous mineral solutions. In kind it is in vivo. Conditions: saccharide 1 w/v %, total of 18 clams, 16 h. Here is the method:
Suitable region for biological activity of short-necked clam (Ruditapes philippinarum), as a fish or shellfish living in seawater, was examined by adding various saccharides to mineral aqueous solutions with various concentrations. In detail, solar salt (85% by weight of sodium chloride and 15% by weight of magnesium) as minerals was dissolved in running water kept in a container for two days to give final concentrations described in the following Table 1. Saccharide (any one of D-glucose, maltose, sucrose, maltitol, α,α-trehalose, α-maltosyl α,α-trehalose, maltotetraose and cyclic tetrasaccharide) was dissolved in the resulting salt solutions to give a final concentration of 1 w/v %, on a dry solid basis. Each of the resulting solutions was placed in a plastic bat. Eighteen pre-selected active short-necked clam in one group were placed in the bat. The bat was shaded with a black cloth and left at ambient temperature (18° C.) for 16 hours. As a control, an aqueous solar salt solution without any saccharides was prepared. Saccharides except for α-maltosyl α,α-trehalose as a saccharide derivatives thereof and cyclic tetrasaccharide were chosen from commercialized products. α-Maltosyl α,α-trehalose as saccharide derivatives of α,α-trehalose in a powder form with a purity of 98 w/w % or over was prepared by the method disclosed in Experiment 4 in Japanese Patent Kokai No. 143876/1995. Cyclic tetrasaccharide in a crystalline form with a purity of 98 w/w % or over, on a dry solid basis, was prepared by the method disclosed in Example A-7 in International Patent Publication No. WO02/10361. Influence of various saccharides was judged by observing the degree of extending aqueduct of the shellfish; 3 points: its aqueduct is well extended; 2 points: its aqueduct is slightly extended; 1 point: its aqueduct is not extended but its shells are opened; 0 point: its shells are closed. The effect on biological activity was judged by the total point of 18 shellfishes. To investigate the effective concentration range of α,α-trehalose or α-maltosyl α,α-trehalose against a mineral solution with a concentration of 1.5 w/v % or 4.5 w/v %, where α,α-trehalose or α-maltosyl α,α-trehalose was remarkably effective in Experiment 1, the following experiment using α,α-trehalose or α-maltosyl α,α-trehalose at a concentration of 0.01, 0.1, 1, 2, 3 or 4 w/v % was carried out according to the method in Experiment 1. As a control, mineral aqueous solutions with a concentration of 1.5 w/v % or 4.5 w/v % without any of the saccharides were prepared and carried out in the same manner.

Test [2] relates to colbicula (Corbicula leana). Nature of the test: Biological activity of corbicula (aqueduct extension score) in aqueous mineral solutions. The format is in vivo. The following applies: saccharide 1 w/v %, total of 18 shellfishes, 16 h. An excerpt:
Influence of various saccharides was judged by observing the degree of extending aqueduct of the shellfish; 3 points: its aqueduct is well extended; 2 points: its aqueduct is slightly extended; 1 point: its aqueduct is not extended but its shells are opened; 0 point: its shells are closed. The effect on biological activity was judged by the total point of 18 shellfishes.
Suitable region for biological activity was examined by using colbicula (Corbicula leana) as fishes and shellfishes living in fresh water in the case of enhancing their biological activity by using aqueous mineral solutions containing various saccharides. In detail, solar salt (85% by weight of sodium chloride and 15% by weight of magnesium) as minerals was dissolved in tap water kept in a container for two days to give final concentrations described in the following Table 4. Saccharide (any one of D-glucose, maltose, sucrose, maltitol, α,α-trehalose, α-maltosyl α,α-trehalose, maltotetraose and cyclic tetrasaccharide) was dissolved in the resulting salt solutions to give a final concentration of 1 w/v %, on a dry solid basis. The resulting each solution was placed in a plastic bat. Eighteen pre-selected active shellfishes in one group were placed in the bat. The bat was shaded with a black cloth and left at ambient temperature (18° C.) for 16 hours. As a control, an aqueous solar salt solution without saccharides was prepared. Biological activity of the shellfish was judged by measuring extend their aqueducts macroscopically in the same manner as in Experiment 1.
Effective concentration range of α,α-trehalose or α-maltosyl α,α-trehalose on enhancing biological activity and/or influencing on suitable region for biological activity of colbicula (Corbicula leana) was determined according to the method of Experiment 4 by examining biological activity of the shellfish in the aqueous mineral solution with a mineral concentration of 1.5 w/v %, where α,α-trehalose or α-maltosyl α,α-trehalose was effective in Experiment 4, containing α,α-trehalose or α-maltosyl α,α-trehalose at a concentration of 0.01, 0.1, 1, 2, 3 or 4 w/v %, on a dry solid basis. As a control, a solution containing 1.5 w/v % of mineral without such saccharides was prepared and treated in the same manner.

Take `OC[C@H]1O[C@H](O[C@H]2[C@H](O)[C@@H](O)C(O)O[C@@H]2CO)[C@H](O)[C@@H](O)[C@@H]1O` (mixture of isomers) [Maltose, maltose]: the “Judgment score for biological activity” value is on record as 4 in test [1] (mineral 0 w/v %); 12 in test [1] (mineral 0.5 w/v %); 14 in test [1] (mineral 1.0 w/v %); 15 in test [1] (mineral 1.5 w/v %); 32 in test [1] (mineral 2.0 w/v %); 44 in test [1] (mineral 2.5 w/v %). Moreover, the “Judgment score for biological activity” value in test [1] (mineral 3.0 w/v %) is on record as 48; in test [1] (mineral 3.5 w/v %) it was 42; in test [1] (mineral 4.0 w/v %), 32; in test [1] (mineral 4.5 w/v %), 25; in test [1] (mineral 5.0 w/v %) it was 8; in test [1] (mineral 5.5 w/v %), 3. Besides, the “Judgment score for biological activity” value in test [1] (mineral 6.0 w/v %) came out at 0. The “Judgment score of biological activity” value in test [2] (mineral concentration 0) is 51; in test [2] (mineral concentration 0.5), 49; in test [2] (mineral concentration 1.0), 18; in test [2] (mineral concentration 1.5), 15; in test [2] (mineral concentration 2.0), 14; in test [2] (mineral concentration 2.5), 9. Also, the “Judgment score of biological activity” value in test [2] (mineral concentration 3.0) stood at 0.
As for `OC[C@H]1O[C@@H]2OC[C@H]3O[C@H](O[C@@H]4[C@@H](O)[C@@H](OC[C@H]5O[C@H](O[C@H]([C@H]2O)[C@@H]1O)[C@H](O)[C@@H](O)[C@@H]5O)O[C@H](CO)[C@H]4O)[C@H](O)[C@@H](O)[C@@H]3O` [Cyclic tetrasaccharide, cyclic tetrasaccharide], the “Judgment score for biological activity” value is listed as 6 in test [1] (mineral 0 w/v %); 10 in test [1] (mineral 0.5 w/v %); 15 in test [1] (mineral 1.0 w/v %); 16 in test [1] (mineral 1.5 w/v %); 30 in test [1] (mineral 2.0 w/v %); 43 in test [1] (mineral 2.5 w/v %). In addition, the “Judgment score for biological activity” value in test [1] (mineral 3.0 w/v %) was 49; in test [1] (mineral 3.5 w/v %), 41; in test [1] (mineral 4.0 w/v %) it was 30; in test [1] (mineral 4.5 w/v %), 17; in test [1] (mineral 5.0 w/v %), 11; in test [1] (mineral 5.5 w/v %) it was 0. The “Judgment score for biological activity” value in test [1] (mineral 6.0 w/v %) is on record as 0. Moreover, the “Judgment score of biological activity” value came to 51 in test [2] (mineral concentration 0); 50 in test [2] (mineral concentration 0.5); 29 in test [2] (mineral concentration 1.0); 16 in test [2] (mineral concentration 1.5); 13 in test [2] (mineral concentration 2.0); 12 in test [2] (mineral concentration 2.5). Besides, in test [2] (mineral concentration 3.0), the “Judgment score of biological activity” value was 1.
For the molecule `O=C[C@H](O)[C@@H](O)[C@H](O)[C@H](O)CO` [D-Glucose, D-glucose], the “Judgment score for biological activity” value in test [1] (mineral 0 w/v %) was determined as 7; in test [1] (mineral 0.5 w/v %), 12; in test [1] (mineral 1.0 w/v %), 12; in test [1] (mineral 1.5 w/v %), 14; in test [1] (mineral 2.0 w/v %), 30; in test [1] (mineral 2.5 w/v %), 41. The “Judgment score for biological activity” value in test [1] (mineral 3.0 w/v %) was 48; in test [1] (mineral 3.5 w/v %) it was 44; in test [1] (mineral 4.0 w/v %), 31; in test [1] (mineral 4.5 w/v %), 24; in test [1] (mineral 5.0 w/v %), 11; in test [1] (mineral 5.5 w/v %), 4. Further, the “Judgment score for biological activity” value in test [1] (mineral 6.0 w/v %) is recorded as 0. For the same molecule, the “Judgment score of biological activity” value in test [2] (mineral concentration 0) amounted to 50; in test [2] (mineral concentration 0.5), 51; in test [2] (mineral concentration 1.0) it was 25; in test [2] (mineral concentration 1.5), 18; in test [2] (mineral concentration 2.0), 15; in test [2] (mineral concentration 2.5), 5. The “Judgment score of biological activity” value in test [2] (mineral concentration 3.0) worked out at 0.
Consider `OC[C@@H](O)[C@@H](O[C@H]1O[C@H](CO)[C@@H](O)[C@H](O)[C@H]1O)[C@H](O)[C@@H](O)CO` [Maltitol, maltitol], for which the “Judgment score for biological activity” value in test [1] (mineral 0 w/v %) was determined as 8; in test [1] (mineral 0.5 w/v %) it was 11; in test [1] (mineral 1.0 w/v %), 15; in test [1] (mineral 1.5 w/v %), 20; in test [1] (mineral 2.0 w/v %) it was 30; in test [1] (mineral 2.5 w/v %), 41. The “Judgment score for biological activity” value is given as 48 in test [1] (mineral 3.0 w/v %); 47 in test [1] (mineral 3.5 w/v %); 32 in test [1] (mineral 4.0 w/v %); 16 in test [1] (mineral 4.5 w/v %); 12 in test [1] (mineral 5.0 w/v %); 5 in test [1] (mineral 5.5 w/v %). Further, in test [1] (mineral 6.0 w/v %), the “Judgment score for biological activity” value was 0. Moreover, the “Judgment score of biological activity” value is 50 in test [2] (mineral concentration 0); 47 in test [2] (mineral concentration 0.5); 25 in test [2] (mineral concentration 1.0); 18 in test [2] (mineral concentration 1.5); 13 in test [2] (mineral concentration 2.0); 2 in test [2] (mineral concentration 2.5). The “Judgment score of biological activity” value in test [2] (mineral concentration 3.0) is 0.
